Data from patent US6464980B1, “MAGE-1 c-terminal immunogenic peptides” (Epimmune Inc., priority 1993, dated 2002).

Columns and labels:
HLA-A3 class I molecule = HLA-A3 class I molecule (Homo sapiens, UniProt P04439); test: class I binding assay, HLA-A3; settings: Table 2 MAGE CTL targets, column A3; unit not given
Experimental: (§1) Peptides comprising the CTL epitopes are synthesized and the ability to bind appropriate MHC molecules is determined in assays using, for example, purified class I molecules and radioiodinated peptides and/or cells expressing empty class I molecules by, for instance, immunofluorescent staining and flow microfluorimetry, peptide-dependent class I assembly assays, and inhibition of CTL recognition by peptide competition. Those peptides that bind to the class I molecule are further chosen for their ability to serve as targets for CTLs derived from afflicted individuals, as well as for their capacity to induce primary in vitro or in vivo CTL responses that can give rise to CTL populations capable of reacting with tumor cells as therapeutic agents. Methods for determining allele-specific peptides and peptide motifs are described in co-pending commonly owned applications U.S. Ser. No. 027,146 and U.S. Ser. No. 027,746, which are incorporated herein by reference.
(§2) These peptides were then evaluated as to their capacity to bind to the appropriate class I molecules using specific binding assays as described in copending and commonly owned application U.S. Ser. No. 08/027,746, incorporated herein by reference.

HLA-A11 class I molecule = test: class I binding assay, HLA-A11; parameters: species or system human; settings: Table 2 MAGE CTL targets, column A11; unit not given
Experimental: as §1, §2

HLA-A2 class I molecule = HLA-A2 class I molecule (Homo sapiens, UniProt P04439, D140Y/D185E/D98H/E176V/E277Q/G131W/G231S/I119V/I121R/I166T/I218V/L300P/L318F/N151K/N90K/P208A/P217A/Q86G/Q94H/R138H/R169H/T345S); test: class I binding assay, HLA-A2; settings: Table 2 MAGE CTL targets, column A2; unit not given
Experimental: as §1, §2

HLA-A1 class I molecule = test: class I binding assay, HLA-A1; parameters: species or system human; settings: Table 2 MAGE CTL targets, column A1; unit not given
Experimental: as §1, §2

HLA-A24 class I molecule = test: class I binding assay, HLA-A24; parameters: species or system human; settings: Table 2 MAGE CTL targets, column A24; unit not given
Experimental: as §1, §2

[1] = target: HLA-A1 class I molecule (human); test: class I binding assay as described in U.S. Ser. No. 08/027,746; format not described here
[2] = target: HLA-A24.1 class I molecule (human); test: as above

Row | Molecule | A3 (binding to class I molecule) (HLA-A3 class I molecule) | A11 (binding to class I molecule) (HLA-A11 class I molecule) | other results
1 | ALAETSYVK [Id 1072.38, MAGE-1 C-terminal peptide, position 271,9-mer, motif A03/11] | 0.3100 | 0.3600 | –
2 | ALAETSYVKV [Id 1072.33] | – | – | A2 (binding to class I molecule) (HLA-A2 class I molecule): 0.0150
3 | DLVQEKYLEY [1072 40, MAGE-1 peptide, position 242, 10-mer, motif A03] | 0.0320 | 0.0051 | –
4 | ETSYVKVLEY [Id 1072.28, MAGE-1 C-terminal peptide, position 274, 10-mer, motif A01/11] | – | – | A1 (binding to class I molecule) (HLA-A1 class I molecule): 0.5600
5 | LVQEKYLEY [Id 1072.42, MAGE-1 peptide, position 243,9-mer, motif A11] | 0.0026 | 0.0340 | –
6 | RALAETSYVK (RALAETSYVKVK) [Id 1072.39, MAGE-1 C-terminal peptide, position 270, 10-mer, motif A03/11] | 0.1800 | 0.2400 | –
7 | RVRFFFPSLR [Id 1072.37, MAGE-1 C-terminal peptide, position 290, 10-mer, motif A03/11] | 0.4300 | 0.0089 | –
8 | SYVKVLEYVI [Id 1072.43, MAGE-1 C-terminal peptide, position 276, 10-mer, motif A24] | – | – | A24 (binding to class I molecule) (HLA-A24 class I molecule): 0.0360
9 | TSYVKVLEY [Id 1072.29, MAGE-1 C-terminal peptide, position 275,9-mer, motif A01/11] | – | – | A1 (binding to class I molecule) (HLA-A1 class I molecule): 0.0990
10 | TSYVKVLEY [Id 1072.36, MAGE-1 C-terminal peptide, position 275,9-mer, motif A03/11] | 0.7100 | 0.0100 | –
11 | YVIKVSARV [Id 1072.34] | – | – | A2 (binding to class I molecule) (HLA-A2 class I molecule): 0.0140
12 | YVIKVSARVR [Id 1072.41, MAGE-1 C-terminal peptide, position 283, 10-mer, motif A03] | 0.0190 | 0.0009 | –
13 | TSYVKVLEY | – | – | binding value under column A1 (quantity not explained) [1]: 0.099
14 | ETSYVKVLEY | – | – | binding value under column A1 (quantity not explained) [1]: 0.56
15 | SYVKVLEYVI | – | – | binding value under column A24 (quantity not explained) [2]: 0.036
